According to patent US20110190503A1, “Thiazolopyridin-2-yloxy-phenyl and thiazolopyrazin-2-yloxy-phenyl amines as modulators of leukotriene A4 hydrolase” (Janssen Pharmaceutical NV, priority 2008, published 2011):
Counter-ions that a name gives are not always drawn. Each block holds one compound with its values, some of them ahead of it.

Key:
[1] = tested on: airway hyperresponsiveness; conditions: primate model; cited from earlier work
[2] = tested on: ionophore-induced LTB4 production; conditions: oral administration; cited from earlier work
colitis symptoms = conditions: eight weeks of treatment, cotton top tamarins; cited from earlier work
[3] = tested on: ionophore-induced LTB4 production; conditions: oral administration; cited from earlier work; remark: listed apart in the source
[4] = tested on: LTB4 production by calcium ionophore-stimulated murine blood; assay: LTB4 production by calcium ionophore-stimulated murine blood for LTA4H inhibitor activity; format: cell-based, CD-1 mice; conditions: Mus musculus; murine blood diluted 1 in 15, calcium ionophore A23187, LTB4 by immunoassay; read-out: IC50
Outline: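 Heparinized CD-1 mouse blood pre-incubated with compound 15 min at 37° C, then stimulated with calcium ionophore A23187 (7 μg/mL final) for 30 min. LTB4 in supernatant measured by enzyme immunoassay; values are single or averaged determinations, with SD for n≥3.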

[5] = target: T1, recombinant human LTA4 hydrolase (rhLTA4H) (Homo sapiens, UniProt P09960); assay: Recombinant human LTA4 hydrolase assay for LTA4 hydrolase inhibitor activity; format: biochemical; conditions: rhLTA4H, LTA4 substrate, LTB4 by immunoassay; single determination or average; read-out: IC50
T1 construct: made in house; host or cells: Spodoptera frugiperda (Sf-9) cells, recombinant baculovirus (pFastBac1)
T1 sequence (P09960 1-611): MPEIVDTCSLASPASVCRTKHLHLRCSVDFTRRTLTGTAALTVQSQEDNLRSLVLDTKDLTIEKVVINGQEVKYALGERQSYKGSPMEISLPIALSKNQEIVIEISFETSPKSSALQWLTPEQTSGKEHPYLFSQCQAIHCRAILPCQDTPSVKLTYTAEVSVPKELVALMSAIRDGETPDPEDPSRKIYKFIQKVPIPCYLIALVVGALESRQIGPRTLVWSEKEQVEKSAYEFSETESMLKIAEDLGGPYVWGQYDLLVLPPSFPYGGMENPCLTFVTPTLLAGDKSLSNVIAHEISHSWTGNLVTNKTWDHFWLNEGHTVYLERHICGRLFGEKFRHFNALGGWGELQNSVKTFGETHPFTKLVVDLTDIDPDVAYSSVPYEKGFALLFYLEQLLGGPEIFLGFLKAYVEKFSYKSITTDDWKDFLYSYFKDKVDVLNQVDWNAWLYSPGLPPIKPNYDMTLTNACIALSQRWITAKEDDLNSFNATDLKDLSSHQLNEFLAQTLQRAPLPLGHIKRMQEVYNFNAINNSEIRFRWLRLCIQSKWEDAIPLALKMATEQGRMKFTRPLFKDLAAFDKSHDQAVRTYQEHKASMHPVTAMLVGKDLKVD
Outline: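 Recombinant human LTA4H from baculovirus-infected Sf-9 cells (10 ng) pre-incubated 10 min at rt with compound (10% DMSO in dilutions), then reacted with free-acid LTA4 for 30 min at rt. LTB4 measured by ELISA; IC50 by nonlinear regression. Values are single determinations or averages.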

[6] = tested on: LTB4 production by calcium ionophore-stimulated human blood; assay: LTB4 production by calcium ionophore-stimulated human blood for LTA4H inhibitor activity; format: cell-based; conditions: human blood diluted 1:1, calcium ionophore A23187, LTB4 by immunoassay; n in parentheses; read-out: IC50
Method: Assay 3: LTB4 Production by Calcium Ionophore-Stimulated Human Blood for LTA4H Inhibitor Activity
Human blood was collected from healthy donors in heparin-containing syringes. The blood was diluted 1:1 with RPMI-1640 medium, and 200-μL aliquots of the diluted blood were added to wells of a 96-well microtiter plate. LTA4H inhibitor test compounds were prepared at different concentrations in RPMI-1640 medium containing 1% DMSO, and 20 μL of each test solution was added to a well containing diluted whole blood (final DMSO concentration of 0.1%). After the microtiter plate contents were incubated for 15 min at 37° C. in a humidified incubator, calcium ionophore A23187 (Sigma Chemical Co., St. Louis, Mo.) was added to each sample well (final concentration=7 μg/mL). The incubation was continued under the same conditions for an additional 30 min to allow LTB4 formation. The reaction was terminated by centrifugation (833×g, 10 min at 4° C.), and supernatants were analyzed for LTB4 by a commercially available enzyme-linked immunoassay (Cayman Chemical Co.) according to the manufacturer's instructions. Positive controls, under essentially identical conditions but without addition of an inhibitor compound, and negative unstimulated controls, containing all assay components except calcium ionophore, were routinely run in each experiment. IC50 values for compounds tested in this assay were determined by nonlinear regression of the activity data at different compound concentrations using Graphpad Prism 4.0, one site binding competition, and are presented in Table 3. The number of determinations made is indicated in parentheses following each value.

[7] = tested on: bronchial hyperresponsiveness; conditions: human asthma; cited from earlier work
atopic dermatitis = conditions: small, open-label clinical trials; cited from earlier work
pruritus = conditions: Sjogren-Larsson syndrome patients; cited from earlier work
[8] = severe asthmatics; cited from earlier work

SMILES: O=C(O)C1(c2ccc3c(c2)OC[C@H](Cc2ccc(-c4ccccc4)cc2)[C@H]3O)CCCC1 [CP-105,696]
airway hyperresponsiveness induced by multiple antigen challenges [1]: reduced airway hyperresponsiveness

SMILES: CN(CCCOc1ccc(Cc2ccccc2)cc1)CCC(=O)O.Cl [SC57461]
inhibition of ionophore-induced LTB4 production in mouse blood ex vivo [2]: caused inhibition
colitis symptoms (colitis symptoms): significantly improved
inhibition of ionophore-induced LTB4 production in rat peritoneum in vivo [3]: caused inhibition

IC50 [4]: 0.029 µM
IC50 [5]: 0.003 µM
IC50 [6]: 0.01 µM
SMILES: NC(=O)N1C[C@@H]2CC[C@H]1CN2Cc1ccc(Oc2nc3ncccc3s2)cc1 [Example 293, (1S,4S)-5-[4-([1,3]Thiazolo[4,5-b]pyridin-2-yloxy)benzyl]-2,5-diazabicyclo[2.2.2]octane-2-carboxamide formate]

SMILES: CC(c1cc2ccccc2s1)N(O)C(N)=O (centres unmarked) [zileuton]
bronchial hyperresponsiveness [7]: reduction of bronchial hyperresponsiveness
effect in atopic dermatitis (atopic dermatitis): beneficial effects
pruritus (pruritus): relieving the pruritus
quality of life [8]: significantly improve quality of life
